Test system: 379773-124-R-J2-PDC complex spheroids, viability % test/control
Assay: Anticancer human tumor 379773-124-R-J2-PDC patient-derived endometrial carcinoma cell line growth inhibition [CLK]
Details: for IC50: curve of first compound; for viability, T/C: stronger effect = lower value
Text: A high-throughput screen of multi-cell type tumor spheroids was designed to identify active combinations of […] and targeted small molecules. Complex spheroids include a stromal component modeled by human endothelial cells (HUVEC) and fibroblasts modeled by human mesenchymal stem cells (MSCs). The concentration ranges selected for each drug and investigational agent were based upon clinically achievable concentrations if the clinical Cmax of the agent was known.
Compounds. The drugs and investigational agents: cirtuvivint (SM08502; NSC835563), CC-671 (NSC850746), vemurafenib (NSC761431), tapotoclax (NSC804041), sotorasib (NSC818433), adagrasib (NSC831453), MRTX-1133 (NSC836407), BAY2416964 (NSC825713), copanlisib (NSC816437), inavolisib (NSC800729), abemaciclib (NSC768073), osimertinib (NSC779217), entinostat (NSC756642), eltanexor (KPT-8602, NSC794443), venetoclax (NSC766270), ceralasertib (NSC777638), bortezomib (NSC756655), olaparib (NSC753686), talazoparib (NSC767125), alisertib (NSC759677), peposertib (NSC802822), gemcitabine (NSC613327), 5-fluorouracil (NSC19893), SN-38 (NSC673596), oxaliplatin (NSC266046), paclitaxel (NSC125973), and doxorubicin (NSC123127), were obtained from the National Cancer Institute (NCI) Developmental Therapeutics Program Chemical Repository. The FDA-approved anticancer drug set is available from the Developmental Therapeutics Program at https://dtp.cancer.gov/organization/dscb/obtaining/available plates.htm. […] The stock solutions were prepared in dimethyl sulfoxide (DMSO, Sigma-Aldrich, St. Louis, MO, cat. D2650), except for the platinum complexes which were prepared in saline (Quality Biological, Gaithersburg, MD, cat. 114-055-101), at 800-fold the tested concentration and stored at -70 degrees C prior to their use. All drugs and investigational agents were tested over a range starting from a high concentration at or near the clinical Cmax and decreasing in half-log increments. If the clinical Cmax for an agent had not been determined, the highest concentration tested was 10 microM.
Cell Culture. All cells were maintained in an incubator at 37 degrees C and 5% CO2 with 95% humidity. The PDC lines were cultured according to standard operating procedures established by the NCI PDMR. Briefly, all PDCs were thawed and cultured in Matrigel-coated flasks prepared with a working solution of 1X Ham's F-12 nutrient mix, without supplementation (Invitrogen, Waltham, MA, cat. 11765054), 100 U/mL penicillin-streptomycin (Invitrogen, cat. 15140122), and 2.5% Matrigel (Corning Inc., Corning, NY, cat. 354248) for the first three passages. The 947758-054-R-J2-PDC line was cultured in 6B/Colon 1A media, which includes advanced DMEM/F-12 (Thermo Fisher Scientific, cat. 12634028), 10 mM HEPES (Thermo Fisher Scientific, cat. 15630080), 1X GlutaMAX supplement (Thermo Fisher Scientific, cat. 35050061), 0.1 mg/mL primocin (InvivoGen, cat. ant-pm-2), 10% defined fetal bovine serum, heat inactivated (HyClone Laboratories Inc., cat. SH30070.03HI), 1.25 mM N-Acetyl-L-cysteine (Sigma-Aldrich, cat. A9165), 10 mM nicotinamide (Sigma-Aldrich, cat. N0636), 1X B-27 supplement (Thermo Fisher Scientific, cat. 17504044), 1X N-2 supplement (Thermo Fisher Scientific, cat. 17502048), and 10 microM Y-27632 dihydrochloride (Tocris Bioscience, cat. 1254). The 876862-298-R-J1-PDC was cultured in 6E media, which includes all 6B/Colon 1A media components plus 50% L-WRN conditioned media (ATCC, cat. CRL-3276), 50 ng/mL recombinant human EGF recombinant protein (hEGF; Thermo Fisher Scientific, cat. PHG0311), 10 ng/mL recombinant human fibroblast growth factor 10 (hGFG-10; PeproTech, cat. 100-26), 1 ng/mL recombinant human fibroblast growth factor 2 (hFGF-2; PeproTech, cat. 100-18B), and 1 µM prostaglandin E2 (PGE2; Tocris, cat. 2296). The 227483-062-R1-J1-PDC line was cultured in Panc media, containing all 6E components except hFGF-2, with the addition of 500 nM SB-431542 (Selleckchem, cat. S1067) and 10 nM gastrin (Tocris, cat. 3006). […]
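Further: compound exposure lasted seven days before the viability readout.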
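Wherever viability, T/C is given: 100% = DMSO vehicle control wells.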

IC50 (second compound 0.0316 µM): < 31.6 nM
IC50 (second compound 0.1 µM): < 31.6 nM
IC50 (second compound 0.316 µM): < 31.6 nM
IC50 (second compound 1 µM): < 31.6 nM
IC50 (second compound 3.16 µM): < 31.6 nM
IC50 (second compound 10 µM): < 31.6 nM
SMILES: COc1cccc2c1C(=O)c1c(O)c3c(c(O)c1C2=O)CC(O)(C(=O)CO)CC3OC1CC(N)C(O)C(C)O1 (configuration not stated) + CNC(=O)c1ccc(Nc2nc(OC3CCCC3)c3c(-c4ccc5nc(C)oc5c4)c[nH]c3n2)c(OC)c1
viability, T/C (second compound 0.0316 µM, first compound 0.0316 µM): 31.1%
viability, T/C (second compound 0.0316 µM, first compound 0.1 µM): 6.01%
viability, T/C (second compound 0.0316 µM, first compound 0.316 µM): 5.35%
viability, T/C (second compound 0.0316 µM, first compound 1 µM): 3.7%
viability, T/C (second compound 0.0316 µM, first compound 3.16 µM): 0.43%
viability, T/C (second compound 0.0316 µM, first compound 10 µM): 0.22%
viability, T/C (second compound 0.1 µM, first compound 0.0316 µM): 22.6%
viability, T/C (second compound 0.1 µM, first compound 0.1 µM): 6.93%
viability, T/C (second compound 0.1 µM, first compound 0.316 µM): 5.94%
viability, T/C (second compound 0.1 µM, first compound 1 µM): 3.46%
viability, T/C (second compound 0.1 µM, first compound 3.16 µM): 0.36%
viability, T/C (second compound 0.1 µM, first compound 10 µM): 0.17%
viability, T/C (second compound 0.316 µM, first compound 0.0316 µM): 25.9%
viability, T/C (second compound 0.316 µM, first compound 0.1 µM): 4.93%
viability, T/C (second compound 0.316 µM, first compound 0.316 µM): 3.63%
viability, T/C (second compound 0.316 µM, first compound 1 µM): 2.73%
viability, T/C (second compound 0.316 µM, first compound 3.16 µM): 0.13%
viability, T/C (second compound 0.316 µM, first compound 10 µM): 0.11%
viability, T/C (second compound 1 µM, first compound 0.0316 µM): 17.8%
viability, T/C (second compound 1 µM, first compound 0.1 µM): 4.68%
viability, T/C (second compound 1 µM, first compound 0.316 µM): 3.73%
viability, T/C (second compound 1 µM, first compound 1 µM): 1.18%
viability, T/C (second compound 1 µM, first compound 3.16 µM): 0.15%
viability, T/C (second compound 1 µM, first compound 10 µM): 0.06%
viability, T/C (second compound 3.16 µM, first compound 0.0316 µM): 12%
viability, T/C (second compound 3.16 µM, first compound 0.1 µM): 5.12%
viability, T/C (second compound 3.16 µM, first compound 0.316 µM): 3.67%
viability, T/C (second compound 3.16 µM, first compound 1 µM): 1.27%
viability, T/C (second compound 3.16 µM, first compound 3.16 µM): 0.08%
viability, T/C (second compound 3.16 µM, first compound 10 µM): 0.12%
viability, T/C (second compound 10 µM, first compound 0.0316 µM): 9.36%
viability, T/C (second compound 10 µM, first compound 0.1 µM): 5.57%
viability, T/C (second compound 10 µM, first compound 0.316 µM): 3.11%
viability, T/C (second compound 10 µM, first compound 1 µM): 1.07%
viability, T/C (second compound 10 µM, first compound 3.16 µM): 0.14%
viability, T/C (second compound 10 µM, first compound 10 µM): 0.23%

From PubChem BioAssay AID2060604 (Molecular Pharmacology Branch, DTP, NCI, 2025)
